Source: PubChem BioAssay (NCI)
Several values for one entry are separate records, joined by “and”; a condition that tells them apart may be missing. Equal entries are not always repeated.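 Protocol summary: plate cells (96-well), add compound at 5 concentrations, incubate 48 h, interpolate endpoints linearly. The concentration for 50% growth inhibition is given as GI50. At the TGI there is no net growth.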

How the values were obtained:
Assay in all cases: DTP human tumour cell line panel, 48 h
UACC-62 melanoma = test system: UACC-62 melanoma
COLO 205 colon = test system: COLO 205 colon
CAKI-1 renal = test system: CAKI-1 renal
SN12C renal = test system: SN12C renal
RXF 393 renal = test system: RXF 393 renal
MALME-3M melanoma = test system: MALME-3M melanoma
NCI-H23 lung = test system: NCI-H23 lung
HS 578T breast = test system: HS 578T breast
NCI-H522 lung = test system: NCI-H522 lung
A498 renal = test system: A498 renal

| Structure (SMILES) | GI50 (UACC-62 melanoma) [nM] | TGI (UACC-62 melanoma) | GI50 (COLO 205 colon) [nM] | TGI (COLO 205 colon) | GI50 (CAKI-1 renal) [nM] | TGI (CAKI-1 renal) | GI50 (SN12C renal) [nM] | TGI (SN12C renal) | GI50 (RXF 393 renal) [nM] | TGI (RXF 393 renal) | GI50 (MALME-3M melanoma) [nM] | TGI (MALME-3M melanoma) | GI50 (NCI-H23 lung) [nM] | TGI (NCI-H23 lung) | GI50 (HS 578T breast) [nM] | TGI (HS 578T breast) [nM] | GI50 (NCI-H522 lung) [nM] | TGI (NCI-H522 lung) | GI50 (A498 renal) [nM] | TGI (A498 renal) [nM] |
| --- | --- | --- | --- | --- | --- | --- | --- | --- | --- | --- | --- | --- | --- | --- | --- | --- | --- | --- | --- | --- |
| Oc1cccc2ccc(N/N=C/c3cc(CN4CCOCC4)c(O)c4ncccc34)nc12 | 33.9 | 550 nM | 117 | 1600 nM | 50.6 | 1590 nM | 34.8 | 7820 nM | 48 | 1660 nM | 32 | 1890 nM | 32.7 | 1730 nM | 47.9 | 17200 | < 16.5 | 1480 nM | 376 | 4060 |
| CC(C)(Br)C(=O)C(Br)Br | 5850 | 22500 nM and 10200 nM | 4060 | 7040 nM and 8300 nM | 5210 | 3810 nM and 9430 nM | 6130 | > 43100 nM and 11200 nM | 5310 | 10000 nM and 9810 nM | 4920 | 3670 nM and 9420 nM | 5840 | 15700 nM and 10500 nM |  | 19900 | 1370 | 3180 nM and 5160 nM |  | > 54400 |
| c1ccc2cc(-c3n(Cc4ccc5ccccc5n4)c4ccccc4[n+]3Cc3ccc4ccccc4n3)ccc2c1 | 339 | 1320 nM | 171 | 346 nM | 655 | 2000 nM | 298 | 1110 nM | 245 | 1240 nM | 379 | 1690 nM | 285 | 1090 nM | 343 | 1700 | 321 | 1250 nM | 121 | 801 |
